System: Legionella

**Q.** For `OCl` [sodium hypochlorite], which “Legionella test of bath water” value is on record?
**A.** detected

**Q.** And the “Count of the bacteria of the genus Legionella in bath water” value (start 300 CFU/100 ml, free residual chlorine max 2 mg/l for 2 hours, then 3 days at sodium hypochlorite 0.4 mg/l, 2000 bathers per day)?
**A.** 1300 CFU/100 ml
